{
  "source": "patent US20210177818A1",
  "about": "“Antibacterial Formulation for Treating and Prophylactic use in Bacterial, and Fungal Urinary Bladder Infections” (priority 2019, published 2021)",
  "origin": "cited, not measured here",
  "settings": "in acetone, acetic acid, or ethanol",
  "data": [
    {"compound": "CCCCCCCCCCCCCCCC[n+]1ccccc1", "note": "[Cetylpyridinium chloride, 1-hexa-decyl pyridinium chloride]", "values": [
      {"measurement": "solubility", "value": "insoluble"}
    ]}
  ]
}
